In PMC10666288, “Unveiling the Catalytic Mechanism of a Processive Metalloaminopeptidase” (Biochemistry, 2023):
Values joined by “and” are separate entries in the source; they are usually repeats but may differ in a detail not shown here. Equal entries are not always repeated.

Assays:
PaPepA [1] = target: T1, PaPepA (Pseudomonas aeruginosa, UniProt Q02RY8); assay: Isothermal titration calorimetry of metal binding; set-up: GG stays after cleavage) (N); made in house; host or cells: E. coli BL21(DE3)
Experimental: Purified PaPepA (100 μM) was buffer exchanged into ITC buffer (50 mM Tris, 140 mM NaCl, pH 7.4) using a Millipore Amicon Ultra-4 centrifugal unit (10 kDa MWCO). The protein was syringe-filtered through a […] and diluted to 50 μM. 3 mL solutions of filtered metal were also prepared. A 400 μM solution of MnCl2 and a 1 mM solution of MgCl2 were prepared by dilution of 1 M metal chloride stocks (Sigma) into ITC buffer.
Buffer, protein, and metal solutions were degassed. Following extensive washes with ITC buffer, the protein was loaded into the cell (volume 1.43 mL) of a VP-ITC (MicroCal) and MnCl2 or MgCl2 solution was loaded into the syringe (total volume 300 μL). Experiments were carried out using the following settings: temperature = 25 °C, duration = 4 s, spacing = 210 s, filter period = 2 s, for 35 injections (one injection of 2 μL followed by 34 injections of 8 μL). Data were analyzed using Origin(Pro), Version 2021 (OriginLab Corporation, Northampton, Massachusetts, USA), and MicroCal PEAQ-ITC analysis software (Malvern).

PaPepA [2] = target: T1, PaPepA; assay: Metal activation of Leu-pNA cleavage (metal varied, Leu-pNA fixed); type: biochemical; set-up: GG stays after cleavage) (N); made in house; host or cells: E. coli BL21(DE3); settings: with 2 mM Leu-pNA
Experimental: A BMG Labtech POLARstar Omega plate reader was used for activity assays and kinetic studies involving amino acids conjugated to para-nitroaniline (pNA) (Sigma) or peptides as substrates. Assays were carried out at 25 °C in clear half-area 96-well plates (Greiner Bio-One). […] For kinetic assays investigating Leu-AMC as a substrate, a SpectraMax M2E was used. Reactions were carried out using black half-area 96-well plates with clear bottoms (Greiner Bio-One). Product formation was assessed by monitoring changes in fluorescence, with the excitation wavelength set at 341 nm and emission at 441 nm. The cutoff was 420 nm. PMT gain was set to medium, with six flashes per read. […] Calibration curves of pNA concentration vs absorbance and AMC vs fluorescence were constructed, and initial rate values were divided by the slope of these calibration curves to reveal the rate of product formation over time (Table S2).
For all assays excluding pH dependence curves, buffer conditions were as follows: 100 mM HEPES, 50 mM KCl, and pH 8.0. For assays carried out under pseudo-first-order conditions, one reaction component was fixed and in excess, while the other was varied. […] For assays involving variation of aa-pNA or aa-AMC, MnCl2 was added to a final concentration of 3 mM.

PaPepA [3] = target: T1, PaPepA; assay: Solvent kinetic isotope effects; type: biochemical; set-up: GG stays after cleavage) (N); made in house; host or cells: E. coli BL21(DE3); settings: H2O vs 80% D2O, metal varied, Leu-pNA fixed, pH 8.0
Experimental: SKIEs were determined by plotting saturation curves in H2O or 80% D2O. […] Differences between reaction rates under initial velocity conditions were measured varying the concentration of either Leu-pNA or Mn^2+, while keeping the other component constant and in excess (at least 5× the value of KM or KACT, Scheme 2). Experiments were performed at pH 8.0 (100 mM HEPES, with 50 mM KCl). For proton inventory studies, D2O was varied from 0 to 80% in 10% increments. All proton inventory studies were carried out on the same day by using the same enzyme stock.
When calculating SKIEs, kcat and KM were obtained from the Michaelis–Menten curves in H2O. The 80% D2O Michaelis–Menten curve was fit to the following equation: [drawing 2] 2 where Fi is the fraction D2O, and EV/K and EV are the isotope effects −1 on kcat/KM and kcat, respectively.

PaPepA [4] = target: T1, PaPepA; assay: Zn2+ inhibition in the pNA assay with Mn2+; type: biochemical; set-up: GG stays after cleavage) (N); made in house; host or cells: E. coli BL21(DE3)
Experimental: Figure 3 PaPepA metal binding and catalysis. (A) PaPepA activity with different divalent metals assessed through kcat/KACT. Leu-pNA was present in all assays at a concentration of 2 mM. (B) The effects of Zn^2+ and Mn^2+ preincubation, followed by extensive dialysis in metal-free buffer and subsequent addition of excess Mn^2+. (C) Michaelis–Menten plots showing inhibition of PaPepA by Zn^2+. Data were fit to a noncompetitive mixed model of inhibition. (D) Representative plots of the ITC data for titrations of MnCl2 (left) and MgCl2 (right) with PaPepA. The top panel depicts raw data, and the bottom panel depicts the resulting enthalpy changes as a function of molar addition of metal as well as the best fit to a single binding site model. (E) Plot of room-temperature EPR double integrals against Mn^2+ concentration for samples without enzyme (teal dots) and in the presence of 20 μM PaPepA (purple dots). […] (F) Frozen solution EPR spectra of PaPepA in the presence of various ratios of Mn^2+: enzyme, upper box zoomed-in data without the metal in buffer control. For panels (A), (B), and (C), data are mean ± SEM across three replicates. For Figure 3D, experiments were performed in two separate biological replicates, one shown here for illustration, and all data were acquired in Figure S11. […]

PaPepA [5] = target: T1, PaPepA; settings: degassed solutions, 3 mM MnCl2, 2 mM Leu-pNA, sodium bicarbonate 0 to 5 mM
Text: For assays investigating bicarbonate dependence, all buffers and stock solutions were extensively degassed prior to use.[25]

PaPepA [6] = target: T1, PaPepA; assay: biochemical
Text: MnCl2 was present in excess.
concentrations of Leucine as an inhibitor.

T1 sequence (Q02RY8 whole entry): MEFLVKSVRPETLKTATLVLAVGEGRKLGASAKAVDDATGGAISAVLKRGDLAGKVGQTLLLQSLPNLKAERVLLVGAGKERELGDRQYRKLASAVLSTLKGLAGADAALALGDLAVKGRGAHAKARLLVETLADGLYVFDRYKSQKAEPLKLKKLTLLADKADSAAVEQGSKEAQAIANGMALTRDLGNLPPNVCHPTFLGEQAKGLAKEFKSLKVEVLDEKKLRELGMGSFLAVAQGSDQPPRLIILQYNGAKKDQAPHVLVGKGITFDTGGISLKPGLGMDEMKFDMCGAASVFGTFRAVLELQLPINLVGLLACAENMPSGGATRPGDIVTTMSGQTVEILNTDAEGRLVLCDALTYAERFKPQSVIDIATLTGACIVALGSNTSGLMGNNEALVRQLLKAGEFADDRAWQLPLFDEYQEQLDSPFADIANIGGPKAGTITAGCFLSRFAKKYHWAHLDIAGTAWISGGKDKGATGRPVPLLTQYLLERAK

Compound: [Mg+2] [Mg^2+]
- number of metal atoms binding the protein (PaPepA [1]; ITC stoichiometry per monomer): 0.68
- Kd (PaPepA [1]; ITC, first line per metal: N 1, [PepA] 35.80 ± 1.5 (Mn) or 32.60 (Mg) µM, [Metal] 400.0 or 1000 µM): 1.84 ± 0.182 µM
- Kd (PaPepA [1]; ITC, one binding site per monomer): 2.1 ± 0.3 µM
- Kd (PaPepA [1]; ITC, one binding site per monomer, 25 °C, pH 7.4): 2.14 ± 0.326 µM
- Kd (PaPepA [1]; ITC, second line per metal: N 1, [PepA] 47.00 or 48.00 µM, [Metal] 526.5 ± 22.5 (Mn) or 1470 (Mg) µM): 2.72 ± 0.47 µM
- N (PaPepA [1]; ITC, third line per metal: N fitted): 0.679 ± 0.001
- Kd (PaPepA [1]; ITC, third line per metal: N fitted, [PepA] 47.00 or 48.00 µM, [Metal] 400.0 or 1000 µM): 1.84 ± 0.182 µM
- KACT (PaPepA [2]; pH 8.0): 3 mM and 3.0 ± 0.7 mM
- kcat (PaPepA [2]; pH 8.0): 0.051 ± 0.002 s^–1
- kcat/KACT (PaPepA [2]; pH 8.0): 0.017 ± 0.004 s^–1mM^–1
- KACT (PaPepA [2]; pH 8.0, listed as MgCl2): ~3 mM
- ^D2Okcat (PaPepA [3]): 3.1 ± 0.1
- ^D2Okcat/KACT (PaPepA [3]): 2.3 ± 0.1

Compound: [Zn+2] [Zn^2+]
- KACT (PaPepA [2]; pH 8.0): 0.02 ± 0.01 mM
- kcat (PaPepA [2]; pH 8.0): 0.009 s^–1 and 0.009 ± 0.001 s^–1
- kcat/KACT (PaPepA [2]; pH 8.0): 0.5 ± 0.2 s^–1mM^–1
- KACT (PaPepA [2]; pH 8.0, as given in text): 0.02 mM
- Ki (PaPepA [4]; Zn^2+ and Mn^2+ both added without preincubation, noncompetitive mixed model): 12.2 µM
- α (PaPepA [4]; noncompetitive model of inhibition): 5.6

Compound: O=C([O-])O.[Na+] [bicarbonate, sodium bicarbonate]
- activation by bicarbonate (in words) (PaPepA [5]): not observed activation or increase in activity

Compound: CC(C)C[C@H](N)C(=O)O [leucine]
- Ki (PaPepA [6]): 601 µM
